# Values of other authors in patent EP0147926B1, “Oral anti-cancer compositions” (priority 1983, dated 1985).
# How the values were obtained:
# ADJ/PC6A plasmacytoma = settings: administered orally
# [1] = test system: P388 lymphocytic leukaemia; settings: administered orally
structure (smiles),measurement,setting,value
"N.N.O=C([O-])C1(C(=O)[O-])CCC1.[Pt+2] [cis-[diammine-(1,1-cyclobutanedicarboxylato)platinum(II)l]",activity,ADJ/PC6A plasmacytoma,insignificant activity
same,activity,[1],insignificant activity
